Laboratory results from patent publication US5614548A, “Quaternary amine containing ether or ester lipid derivatives and therapeutic compositions” (priority 1994, dated 1997).

Columns and labels:
HIV-1 [1] = test: HIV-1 plaque assay, inhibitor added 60 minutes after infection; format: cell-based, human immunodeficiency virus type 1 (HIV-1); conditions: for anti-HIV-1 activity: HIV-1 plaque formation, in words; for IC50: Human immunodeficiency virus 1, CEM-SS monolayers, compound from sixty minutes after infection, N = 4, read-out: Inhibitory Concentration50 HIV-1 Plaque Formation
From the text: (§1) Dextran sulfate was used as a positive control. […] Plaques were counted at five days after infection.
(§2) By way of further background, in our assay HIV-1 syncytial plaques are seen as large, multicellular foci (10 to 25 nuclei/syncytium) that appear either brown and granular or clear. Since the number of HIV-1 syncytial plaques correlates with reverse transcriptase (RT) and p24 core antigen activity in the HIV-1 infected cell overlay fluids, the syncytial plaque assay can be used to quantify the amount of infectious virus. Reverse transcriptase activity was assayed according to a described procedure (B. J. Poeisz et al., Proc. Natl. Acad. Sci. (U.S.A.) […], 7415 (1980)). The activity of p24 core antigen induced by HIV-1 infection of CEM-SS cells was measured spectrophotometrically using the commercial Abbott EIA.
(§3) Compound E inhibited HIV-1 plaque count 43%, 83%, and 91% at concentrations of 0.2, 0.4, and 2.0 μM, respectively, compared to untreated controls. […] In other experiments addition of 0.2, 0.4 and 2.0 μM Compound E starting sixty minutes after HIV-1 infection inhibited HIV-1 plaque formation 28%, 59% and 97% respectively, compared to untreated controls.
(§4) Next investigated were the correlations of EL analog structure with anti-HIV-l and anti-cell growth. The experimental method used six serial two-fold dilutions of EL that spanned concentrations above and below a concentration that inhibits HIV-1 plaque count, cell growth (^3 H-TdR uptake into cell DNA) or in vitro PKC activity by 50% (inhibitory concentration50 =IC50) compared to an appropriate mock treated control. Table 7 summarizes data on IC50 of phosphorus and non-phosphorus compounds for HIV-1 plaque formation and cell growth.
^1 Serial 2fold dilutions of compounds are used. HIV1 plaque formatio
is measured in CEMSS cell monolayers by having compound present starting
sixty minutes after virus infection. IC50 values for HIV1 plaque
formation are x ± one SD., N = 4. CEMSS cell growth is measured in […]

CEM-SS cells = test: CEM-SS cell growth (3H-TdR uptake); format: cell-based; conditions: Homo sapiens, 48 hours, N = 3, read-out: Inhibitory Concentration50 CEM-SS Cell Growth
From the text: as §4
formation are x ± one SD., N = 4. CEMSS cell growth is measured in
suspension cultures by treating the cells with compound for 48 hours at
37° C. and then adding 1 μCi of ^3 HTdR (S.A. = 20 Ci/mmole
for 8 hours at 37° C. to measure DNA synthesis. IC50 values
for CEMSS growth are x of a representative experiment, N = 3.

Protein Kinase C = Protein Kinase C activity (32P incorporation into histone); format: biochemical, human (HL-60 cells)
Method: PKC was prepared and assayed as described previously. See Daniel, L. W. et al., Biochem. Biophys. Res. Comm. 151, 291 (1988). In brief, HL-60 cells were grown in 75 milliliter flasks, harvested and washed with ice-cold normal saline. After centrifugation (600×g, 5 minutes, 4° Centigrade), the cell pellet was resuspended (20 mM Tris-HCl, pH 7.5, 2 mM EDTA, 10 mM EGTA, 50 mM 2-mercaptoethanol, 2 mM phenylmethylsulfonyl fluoride) and sonicated for 20 s with a stepped microprobe sonciator. Unbroken cells were removed by centrifugation as above and the supernatant centrifuged (65,000×g, 90 minutes, 4° Centigrade). The supernatant from this step (cytosol) was then fractionated on a 1×8 cm DEAE-Sephacel column after addition to sucrose to a final concentration of 10%. After equilibrating the column (20 mM Tris, pH 7.5, 0.2 mM EDTA, 0.2 mM EGTA, 50 mM 2-mercaptoethanol, 10% sucrose), the sample was loaded and unbound material was washed through with 40 milliliters of the equilibrating buffer. The PKC was eluted by a gradient from 0-0.5M NaCl in the buffer described above. Fractions of 1 milliliter were collected at 25 milliliters per hour and 0.05 milliliter aliquots assayed for PKC activity as described below. The fractions with the highest activity were pooled and used in further experiments.
The assays were done at pH 7.5 in a total volume of 0.25 milliliter and all tubes contained 25 mM Tris, 10 mM MgCl2, 40 μg per milliliter histone, 10 μM ATP (including 1 μCi of [gamma-^32 P]-ATP), 0.1 mM CaCl2, 20 μg per milliliter phosphatidylserine, 0.05 milliliter of the PKC preparation and 2.5 μM of oleoylacetylglycerol (OAG). Enzymatic activity was determined as the incorporation of ^32 P from [gamma-^32 P]-ATP) into histone in the presence of Ca^2+, phosphatidylserine, and OAG. Reactions were initiated by the addition of the enzyme preparation and halted after 20 minutes at 30° Centigrade by the addition of 0.05 milliliters of bovine serum albumin (10 milligrams per milliliter) and 1 milliliter 25% ice-cold trichloroacetic acid. The tubes were kept on ice and then filtered in a millipore vacuum box using Millipore® HA filters and washed with 25% trichloroacetic acid. The radioactivity bound to the filters was determined by scintillation spectrometry in 5 milliliters Budget Solve®. […] The analog to be tested was dissolved in ethanol, and added directly into the reaction mixture before the addition of PKC. As a control, 0.1% ethanol was included in the samples with the enzyme but with no inhibitor.

[2] = test system: HL60 human leukemia cell line; test: HL60 cell growth inhibition (trypan blue, 48 h); format: cell-based; conditions: Homo sapiens, HL-60, 48 h, HL60, 48 hours; read-out: ID50 (the source's name)
Method: A number of the compounds disclosed herein have been tested against the HL60 human leukemia cell line to assess their cytotoxic potential. These analogs were investigated in parallel with ET-18-OMe which was used as the reference compound. The methodologies used in this investigation were the same as described in A. Noseda, M. Berens, C. Piantadosi, and E. J. Modest, Lipids 22, 878-883, 1987. In brief, HL60 cells at a concentration of […] were incubated in wells with one milliliter medium with the experimental drug in parallel with the same concentration of cells with ET-18-OMe (standard) or EtOH (control). After 48 hours of incubation the cells were counted using the trypan blue dye exclusion technique to determine the effect of the drug on cell growth. The experimental drug and ET-18-OMe were tested at the same concentrations, e.g., 10, 5, 2.5 and 1.25 μM.

HIV-1 [3] = test: HIV-1 plaque assay, inhibitor added 30 minutes before infection; format: cell-based, human immunodeficiency virus type 1 (HIV-1)
From the text: as §1, §2, §3

Compound	anti-HIV-1 activity (HIV-1 [1])	IC50 (HIV-1 [1]) [µM]	IC50 (CEM-SS cells) [µM]	Percent Protein Kinase C Activity Retained (Protein Kinase C; 1.25 μM) [%]	Percent Protein Kinase C Activity Retained (Protein Kinase C; 2.5 μM) [%]	Percent Protein Kinase C Activity Retained (Protein Kinase C; 5.0 μM) [%]	Percent Protein Kinase C Activity Retained (Protein Kinase C; 10.0 μM) [%]	Percent Protein Kinase C Activity Retained (Protein Kinase C; 20.0 μM) [%]	Percent Protein Kinase C Activity Retained (Protein Kinase C; 40.0 μM) [%]	inhibition at 0.2 µM (HIV-1 [1]; Human immunodeficiency virus 1, 1 h, 0.2 μM, 60 minutes after infection) [%]	inhibition at 0.4 µM (HIV-1 [1]; Human immunodeficiency virus 1, 1 h, 0.4 μM, 60 minutes after infection) [%]	inhibition at 2 µM (HIV-1 [1]; Human immunodeficiency virus 1, 1 h, 2.0 μM, 60 minutes after infection, read-out: Inhibition (%)) [%]	IC50 [2] [µM]	inhibition at 0.2 µM (HIV-1 [3]; Human immunodeficiency virus 1, 0.2 μM, 30 minutes before infection, Table 6) [%]	inhibition at 0.4 µM (HIV-1 [3]; Human immunodeficiency virus 1, 0.4 μM, 30 minutes before infection, Table 6) [%]	inhibition at 2 µM (HIV-1 [3]; Human immunodeficiency virus 1, 2.0 μM, 30 minutes before infection, Table 6) [%]	inhibition at 0.2 µM (HIV-1 [3]; Human immunodeficiency virus 1, HIV-1 plaque formation, 0.2 μM, Table 5) [%]	inhibition at 0.4 µM (HIV-1 [3]; Human immunodeficiency virus 1, HIV-1 plaque formation, 0.4 μM, Table 5, read-out: Inhibition (%)) [%]	inhibition at 2 µM (HIV-1 [3]; Human immunodeficiency virus 1, HIV-1 plaque formation, 2 μM, Table 5) [%]	antiviral activity (HIV-1 plaque formation) (HIV-1 [3]; added before or after infection, in words)
CCCCCCCCCCCCCCCCOCC(O)(CO)CCCCCCCC (stereo not shown) [J]	did not inhibit HIV-1 plaque formation	> 10	> 20	–	–	–	–	–	–	–	–	–	–	–	–	–	–	–	–	–
CCCCCCCCCCCCCCCCSCC(C[N+](C)(C)CCO)OCC (stereo not shown) [B]	significant anti-HIV-1 activity	0.63 ± 0.18	5.4	92	84	70	70	66	47	–	–	–	–	–	–	–	–	–	–	–
CCCCCCCCCCCCCCCCSCC(C[N+](C)(C)CCO)OC.[Br-] (racemic) [CJM 57, (±)-3-hexadecylthio-2-methoxy-N,N-dimethyl-N-β-hydroxyethyl-1-propyl ammonium bromide]	significant anti-HIV-1 activity	0.37 ± 0.01	3.2	–	–	–	–	–	–	28	59	97	4.6	30	38	85	43	83	91	antiviral activity
CCCCCCCCCCCCCCCCCCSCC(C[N+](C)(C)CCCO)OC (stereo not shown) [I]	significant anti-HIV-1 activity	0.52 ± 0.33	3.4	75	56	49	39	27	23	–	–	–	–	–	–	–	–	–	–	–
CCCCCCCCCCCCCCCC(=O)OC[C@H](COP(=O)([O-])OCC[N+](C)(C)C)OC(=O)CCCCCCCCCCCCCCC [dipalmitoyl-phosphatidylcholine, reference compound]	–	> 1360	> 681	–	–	–	–	–	–	–	–	–	–	–	–	–	–	–	–	–
